# Assay results published in patent publication US20040110758A1, “4,6-Diaminosubstituted-2-[oxy or aminoxy]-[1,3,5]triazines as protein tyrosine kinase inhibitors” (priority 2002, published 2004).
# Columns and labels:
# KDR [1] = biological target: T1, KDR (Homo sapiens, UniProt P35968); experiment: KDR Enzymatic Assay (fluorescence polarization competition immunoassay); type: biochemical; conditions: for IC50: 1.6 nM KDR, 10 μM ATP, 10 μg/ml poly(E4,Y), averages of three independent measurements, read-out: IC50 Enzyme; for protein tyrosine kinase (KDR) inhibition, potency in words: text commentary on Table 1
# Procedure: KDR Enzymatic Assay. A fluorescence polarization competition immunoassay was used to determine the compound potency for KDR. The assay was performed in black 96-well microplates (LJL BioSystems). The assay buffer used was 100 mM HEPES, pH 7.5, 1 mM DTT, 0.01% (v/v) Tween-20. Compounds were diluted in assay buffer containing 4% DMSO just prior to the assay. […] The kinase reaction was initiated by adding 2 μl of 8 nM KDR in assay buffer.
# The plates were incubated at room temperature for 5 min. At the end of the incubation, the reaction was quenched with 1.2 μl of 50 mM EDTA. Following a 5-min incubation, each well received 10 μl of a 1:1:3 mixture of anti-phosphotyrosine antibody, 10×, PTK green tracer, 10× (vortexed), FP dilution buffer, respectively (all from PanVera, cat. # P2837). The plate was covered, incubated for 30 min at room temperature and the fluorescence polarization was read on an ANALYST™ HT Assay Detection System (LJL Biosystems, Sunnyvale, Calif.). The instrument settings were: 485 nm excitation filter; 530 nm emission filter; Z height: middle of well; G factor: 0.93. […] The IC50 values reported are the averages of three independent measurements.
# Target sequence in this assay (P35968 20-1356, species assumed): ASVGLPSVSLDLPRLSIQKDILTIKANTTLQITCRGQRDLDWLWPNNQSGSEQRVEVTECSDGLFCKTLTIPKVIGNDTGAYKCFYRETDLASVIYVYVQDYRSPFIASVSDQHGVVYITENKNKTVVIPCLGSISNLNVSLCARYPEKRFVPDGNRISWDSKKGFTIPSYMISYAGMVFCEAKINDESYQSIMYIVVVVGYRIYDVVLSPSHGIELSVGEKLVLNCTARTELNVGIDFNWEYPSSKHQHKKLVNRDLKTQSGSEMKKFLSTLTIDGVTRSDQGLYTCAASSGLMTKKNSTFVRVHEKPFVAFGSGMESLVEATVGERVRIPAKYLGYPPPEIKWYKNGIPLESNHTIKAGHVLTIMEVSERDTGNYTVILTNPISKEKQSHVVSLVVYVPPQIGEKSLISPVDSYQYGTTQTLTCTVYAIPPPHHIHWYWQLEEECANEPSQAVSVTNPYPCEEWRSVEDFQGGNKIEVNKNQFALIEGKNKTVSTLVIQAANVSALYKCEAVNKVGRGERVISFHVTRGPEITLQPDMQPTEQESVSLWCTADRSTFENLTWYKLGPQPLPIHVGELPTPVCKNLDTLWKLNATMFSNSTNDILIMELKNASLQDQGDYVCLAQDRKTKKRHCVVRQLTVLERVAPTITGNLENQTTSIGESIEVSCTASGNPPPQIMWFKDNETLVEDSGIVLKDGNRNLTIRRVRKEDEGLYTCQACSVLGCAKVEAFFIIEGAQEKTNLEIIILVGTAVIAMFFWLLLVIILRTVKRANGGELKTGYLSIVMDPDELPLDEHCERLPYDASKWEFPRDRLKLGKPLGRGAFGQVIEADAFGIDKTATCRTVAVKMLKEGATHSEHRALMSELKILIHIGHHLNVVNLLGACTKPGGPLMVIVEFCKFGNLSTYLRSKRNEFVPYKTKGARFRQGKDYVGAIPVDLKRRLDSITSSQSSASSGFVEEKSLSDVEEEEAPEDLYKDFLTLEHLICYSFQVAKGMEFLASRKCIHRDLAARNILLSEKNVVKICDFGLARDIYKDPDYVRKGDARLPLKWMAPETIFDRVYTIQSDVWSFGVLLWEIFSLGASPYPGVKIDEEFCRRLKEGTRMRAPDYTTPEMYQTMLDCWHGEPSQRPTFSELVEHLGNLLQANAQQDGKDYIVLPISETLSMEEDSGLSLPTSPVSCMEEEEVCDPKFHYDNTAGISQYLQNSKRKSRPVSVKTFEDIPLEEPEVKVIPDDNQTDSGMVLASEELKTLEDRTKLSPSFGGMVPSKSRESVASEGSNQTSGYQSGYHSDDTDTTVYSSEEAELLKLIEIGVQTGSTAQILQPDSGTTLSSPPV
# KDR [2] = biological target: T1, KDR; experiment: KDR Cell-Based Assay (VEGF-stimulated MAP kinase activation in HUVEC); set-up: which express endogenous Flk-1(KDR); endogenous in cells; host or cells: HUVEC (human umbilical vein endothelial cells); conditions: compounds 30 minutes prior to 25 ng/ml VEGF for 10 minutes, phosphorylated MAP kinase immunoblot
# Procedure: KDR Cell-Based Assay. To determine the effect of the test compounds on KDR function in cells, VEGF-stimulated MAP kinase activation in human umbilical vein endothelial cells (HUVEC), which express endogenous Flk-1(KDR), was examined. HUVECs were grown to confluence in EMB-2 endothelial cell media (Biowhittaker Inc., Walkersville, Md.) at 37° C. and 5% CO2. Confluent, quiescent HUVECs were treated with the test compounds 30 minutes prior to stimulation with 25 ng/ml VEGF for 10 minutes at 37° C. These cells were then lysed in HNTG buffer (50 mM HEPES, 150 mM NaCl, 1% triton-X-100, 1.5 mM MgCl2, 10% glycerol, 10 mM NaF, 1 mM EDTA, 10 mM sodium pyrophosphate, 1 uM PMSF and 250 uM NaVO4). Cell lysates (40 ug total protein) were separated by SDS-PAGE and transferred to nitrocellulose. Immunoblots were probed with a polyclonal antibody to phosphorylated MAP kinase (Cell Signaling Technologies, Woburn, Mass.) and alkaline phosphatase conjugated secondary antibody (Biorad Labs, Hercules, Calif.). Immunoblot detection was done by measuring the fluorescent product of the alkaline phosphatase reaction with the substrate 9H-(1,3-dichloro-9,9-dimethylacridin-2-one-7-yl) phosphate, diammonium salt (DDAO phosphate) (Molecular Probes, Eugene, Oreg.) using a Molecular Dynamics Typhoon Imaging system (Molecular Dynamics, Sunnyvale, Calif.). Quantitation of DDAO phosphate signal and IC50 determinations were done with Molecular Dynamics ImageQuant software.
# Target sequence in this assay (P35968 20-1356): as the sequence (P35968 20-1356, species assumed) above
SMILES,IC50 (KDR [1]) [nM],"protein tyrosine kinase (KDR) inhibition, potency in words (KDR [1])",IC50 (KDR [2]) [nM]
"Oc1nc(NCc2ccccc2)nc(Nc2ccc3ncsc3c2)n1 [Example 2, 4-(Benzothiazol-6-ylamino)-6-(benzylamino)-[1,3,5]triazin-2-ol]",1000 to 15000,less active than Examples 3 and 4,
"Oc1nc(Nc2ccc3ncsc3c2)nc(N2CCSC(c3ccccc3)C2)n1 (stereo not shown) [Example 9, 4-(Benzothiazol-6-ylamino)-6-(2-phenyl-thiomorpholin-4-yl)-[1,3,5]triazin-2-ol]",< 1000,potent inhibitors,1000 to 15000
"CC(C)(Nc1ncnc(Nc2ccc3ncsc3c2)n1)c1ccccc1 [Example 16, N-(Benzothiazol-6-yl)-N′-(1-methyl-1-phenylethyl)-[1,3,5]triazine-2,4-diamine]",1000 to 15000,,
"C[C@@H](Nc1nc(O)nc(Nc2ccc3ncsc3c2)n1)c1ccccc1 [Example 3, (R)-4-(Benzothiazol-6-ylamino)-6-(1-phenylethylamino)-[1,3,5]triazin-2-ol]",< 1000,more potent than the corresponding S-enantiomer,1000 to 15000
"C[C@H](Nc1nc(O)nc(Nc2ccc3ncsc3c2)n1)c1ccccc1 [Example 4, (S)-4-(Benzothiazol-6-ylamino)-6-(1-phenylethylamino)-[1,3,5]triazin-2-ol]",1000 to 15000,,
"Oc1nc(Nc2ccc3ncsc3c2)nc(N2CCCC2c2ccccc2)n1 (stereo not shown) [Example 8, 4-(Benzothiazol-6-ylamino)-6-(2-phenyl-pyrrolidin-1-yl)-[1,3,5]triazin-2-ol]",< 1000,,1000 to 15000
"COc1nc(Nc2ccc3ncsc3c2)nc(NC(C)(C)c2ccccc2)n1 [Example 17, N-(Benzothiazol-6-yl)-6-methoxy-N′-(1-methyl-1-1-phenylethyl)-[1,3,5]triazine-2,4-diamine]",1000 to 15000,,
CC(C)(Nc1nc(O)nc(Nc2ccc3ncsc3c2)n1)c1ccccc1 [Example 5],< 1000,one of the most potent protein tyrosine kinase inhibitors tested,< 1000
"CN(CCc1ccccn1)c1nc(O)nc(Nc2ccc3ncsc3c2)n1 [Example 6, 4-(Benzothiazol-6-ylamino)-6-[methyl-(2-pyridyl-2-ylethyl)amino]-[1,3,5]triazin-2-ol]",< 1000,,1000 to 15000
"Oc1nc(Nc2ccc3ncsc3c2)nc(N2CCSCC2c2ccccc2)n1 (stereo not shown) [Example 10, 4-(Benzothiazol-6-ylamino)-6-(3-phenyl-thiomorpholin-4-yl)-[1,3,5]triazin-2-ol]",< 1000,potent inhibitors,1000 to 15000
CN(c1ccc2cn[nH]c2c1)c1nc(O)nc(Nc2ccc3ncsc3c2)n1 [Example 11],< 1000,,1000 to 15000
"CC(C)(Nc1nc(O)nc(Nc2ccc3ncccc3c2)n1)c1ccccc1 [Example 7, 4-(1-methyl-1-phenylethylamino)-6-(guinolin-6-ylamino)-[1,3,5]triazin-2-ol]",< 1000,,1000 to 15000
"CC(C)(Nc1nc(N)nc(Nc2ccc3ncsc3c2)n1)c1ccccc1 [Example 15, N-(Benzothiazol-6-yl)-N′-(1-methyl-1-phenylethyl)-[1,3,5]triazine-2,4,6-triamine]",1000 to 15000,,
"CCN(Cc1ccccc1)c1nc(O)nc(Nc2ccc3ncsc3c2)n1 [Example 1, 4-(Benzothiazol-6-ylamino)-6-(N-ethylbenzylamino)-[1,3,5]triazin-2-ol]",< 1000,,< 1000
"CC(C)(Nc1nc(Nc2ccc3ncsc3c2)nc(OCc2ccccc2)n1)c1ccccc1 [Example 18, N-(Benzothiazol-6-yl)-6-benzyloxy-N′-(1-methyl-1-phenylethyl)-[1,3,5]triazine-2,4-diamine]",1000 to 15000,,
CC(C)(Nc1nc(NO)nc(Nc2ccc3ncsc3c2)n1)c1ccccc1 [Example 14],< 1000,,1000 to 15000
